Measurements as given in ChEMBL document CHEMBL1240439, “Synthesis and docking studies of novel benzopyran-2-ones with anticancer activity” (2010).
Activity calls are given as the source filed them.

Columns and labels:
Format in all cases: functional
[1] = system: NCI-H226; test: Cytotoxicity against human NCI-H226 cells assessed as cell growth at 10 uM after 48 hrs by sulforhodamine B assay
[2] = system: NCI-H23; test: Cytotoxicity against human NCI-H23 cells assessed as cell growth at 10 uM after 48 hrs by sulforhodamine B assay
[3] = system: MOLT-4; test: Cytotoxicity against human MOLT4 cells assessed as cell growth at 10 uM after 48 hrs by sulforhodamine B assay
[4] = system: TK-10; test: Cytotoxicity against human TK10 cells assessed as cell growth at 10 uM after 48 hrs by sulforhodamine B assay
[5] = system: RPMI-8226; test: Cytotoxicity against human RPMI8226 cells assessed as cell growth at 10 uM after 48 hrs by sulforhodamine B assay
[6] = system: SK-MEL-2; test: Cytotoxicity against human SK-MEL-2 cells assessed as cell growth at 10 uM after 48 hrs by sulforhodamine B assay
[7] = system: UACC-62; test: Cytotoxicity against human UACC62 cells assessed as cell growth at 10 uM after 48 hrs by sulforhodamine B assay
[8] = system: OVCAR-5; test: Cytotoxicity against human OVCAR5 cells assessed as cell growth at 10 uM after 48 hrs by sulforhodamine B assay
[9] = system: HT-29; test: Cytotoxicity against human HT-29 cells assessed as cell growth at 10 uM after 48 hrs by sulforhodamine B assay
[10] = system: SF-295; test: Cytotoxicity against human SF295 cells assessed as cell growth at 10 uM after 48 hrs by sulforhodamine B assay
[11] = system: CCRF-CEM; test: Cytotoxicity against human CCRF-CEM cells assessed as cell growth at 10 uM after 48 hrs by sulforhodamine B assay
[12] = system: SN12C; test: Cytotoxicity against human SN12C cells assessed as cell growth at 10 uM after 48 hrs by sulforhodamine B assay
[13] = system: SK-MEL-28; test: Cytotoxicity against human SK-MEL-28 cells assessed as cell growth at 10 uM after 48 hrs by sulforhodamine B assay
[14] = system: COLO 205; test: Cytotoxicity against human COLO205 cells assessed as cell growth at 10 uM after 48 hrs by sulforhodamine B assay
[15] = system: SK-OV-3; test: Cytotoxicity against human SKOV3 cells assessed as cell growth at 10 uM after 48 hrs by sulforhodamine B assay
[16] = system: HCT-15; test: Cytotoxicity against human HCT15 cells assessed as cell growth at 10 uM after 48 hrs by sulforhodamine B assay
[17] = system: LOX IMVI; test: Cytotoxicity against human LOXIMVI cells assessed as cell growth at 10 uM after 48 hrs by sulforhodamine B assay
[18] = system: DU-145; test: Cytotoxicity against human DU145 cells assessed as cell growth at 10 uM after 48 hrs by sulforhodamine B assay
[19] = system: M14; test: Cytotoxicity against human M14 cells assessed as cell growth at 10 uM after 48 hrs by sulforhodamine B assay
[20] = system: SR; test: Cytotoxicity against human SR cells assessed as cell growth at 10 uM after 48 hrs by sulforhodamine B assay
[21] = system: Malme-3M; test: Cytotoxicity against human MALME-3M cells assessed as cell growth at 10 uM after 48 hrs by sulforhodamine B assay
[22] = system: OVCAR-8; test: Cytotoxicity against human OVCAR8 cells assessed as cell growth at 10 uM after 48 hrs by sulforhodamine B assay
[23] = system: OVCAR-4; test: Cytotoxicity against human OVCAR4 cells assessed as cell growth at 10 uM after 48 hrs by sulforhodamine B assay
[24] = system: MDA-MB-468; test: Cytotoxicity against human MDA-MB-468 cells assessed as cell growth at 10 uM after 48 hrs by sulforhodamine B assay
[25] = system: KM12; test: Cytotoxicity against human KM12 cells assessed as cell growth at 10 uM after 48 hrs by sulforhodamine B assay
[26] = system: PC-3; test: Cytotoxicity against human PC3 cells assessed as cell growth at 10 uM after 48 hrs by sulforhodamine B assay
[27] = system: ACHN; test: Cytotoxicity against human ACHN cells assessed as cell growth at 10 uM after 48 hrs by sulforhodamine B assay
[28] = system: UO-31; test: Cytotoxicity against human UO31 cells assessed as cell growth at 10 uM after 48 hrs by sulforhodamine B assay
[29] = system: HOP-92; test: Cytotoxicity against human HOP92 cells assessed as cell growth at 10 uM after 48 hrs by sulforhodamine B assay
[30] = system: SNB-19; test: Cytotoxicity against human SNB19 cells assessed as cell growth at 10 uM after 48 hrs by sulforhodamine B assay
[31] = system: A549; test: Cytotoxicity against human A549 cells assessed as cell growth at 10 uM after 48 hrs by sulforhodamine B assay
[32] = system: MDA-MB-231; test: Cytotoxicity against human MDA-MB-231 cells assessed as cell growth at 10 uM after 48 hrs by sulforhodamine B assay
[33] = system: EKVX; test: Cytotoxicity against human EKVX cells assessed as cell growth at 10 uM after 48 hrs by sulforhodamine B assay
[34] = system: NCI-H322M; test: Cytotoxicity against human NCI-H322M cells assessed as cell growth at 10 uM after 48 hrs by sulforhodamine B assay
[35] = system: SF-268; test: Cytotoxicity against human SF268 cells assessed as cell growth at 10 uM after 48 hrs by sulforhodamine B assay
[36] = system: 786-0; test: Cytotoxicity against human 786-0 cells assessed as cell growth at 10 uM after 48 hrs by sulforhodamine B assay
[37] = system: SK-MEL-5; test: Cytotoxicity against human SK-MEL-5 cells assessed as cell growth at 10 uM after 48 hrs by sulforhodamine B assay
[38] = system: NCI-H460; test: Cytotoxicity against human NCI-H460 cells assessed as cell growth at 10 uM after 48 hrs by sulforhodamine B assay
[39] = system: IGROV-1; test: Cytotoxicity against human IGROV1 cells assessed as cell growth at 10 uM after 48 hrs by sulforhodamine B assay
[40] = system: MCF7; test: Cytotoxicity against human MCF7 cells assessed as cell growth at 10 uM after 48 hrs by sulforhodamine B assay
[41] = system: A498; test: Cytotoxicity against human A498 cells assessed as cell growth at 10 uM after 48 hrs by sulforhodamine B assay
[42] = system: HCC 2998; test: Cytotoxicity against human HCC2998 cells assessed as cell growth at 10 uM after 48 hrs by sulforhodamine B assay
[43] = system: T47D; test: Cytotoxicity against human T47D cells assessed as cell growth at 10 uM after 48 hrs by sulforhodamine B assay
[44] = system: MDA-MB-435; test: Cytotoxicity against human MDA-MB-435 cells assessed as cell growth at 10 uM after 48 hrs by sulforhodamine B assay
[45] = system: HL-60(TB); test: Cytotoxicity against human HL-60(TB) cells assessed as cell growth at 10 uM after 48 hrs by sulforhodamine B assay
[46] = system: Hs-578T; test: Cytotoxicity against human Hs 578T cells assessed as cell growth at 10 uM after 48 hrs by sulforhodamine B assay
[47] = system: K562; test: Cytotoxicity against human K562 cells assessed as cell growth at 10 uM after 48 hrs by sulforhodamine B assay
[48] = system: U-251; test: Cytotoxicity against human U251 cells assessed as cell growth at 10 uM after 48 hrs by sulforhodamine B assay
[49] = system: HCT-116; test: Cytotoxicity against human HCT116 cells assessed as cell growth at 10 uM after 48 hrs by sulforhodamine B assay
[50] = system: NCI-H522; test: Cytotoxicity against human NCI-H522 cells assessed as cell growth at 10 uM after 48 hrs by sulforhodamine B assay
[51] = system: HOP-62; test: Cytotoxicity against human HOP62 cells assessed as cell growth at 10 uM after 48 hrs by sulforhodamine B assay
[52] = system: SW-620; test: Cytotoxicity against human SW620 cells assessed as cell growth at 10 uM after 48 hrs by sulforhodamine B assay
[53] = system: RXF 393; test: Cytotoxicity against human RXF393 cells assessed as cell growth at 10 uM after 48 hrs by sulforhodamine B assay
[54] = system: BT-549; test: Cytotoxicity against human BT549 cells assessed as cell growth at 10 uM after 48 hrs by sulforhodamine B assay
[55] = system: OVCAR-3; test: Cytotoxicity against human OVCAR-3 cells assessed as cell growth at 10 uM after 48 hrs by sulforhodamine B assay
[56] = system: SNB-75; test: Cytotoxicity against human SNB75 cells assessed as cell growth at 10 uM after 48 hrs by sulforhodamine B assay
[57] = system: SF-539; test: Cytotoxicity against human SF539 cells assessed as cell growth at 10 uM after 48 hrs by sulforhodamine B assay
[58] = system: UACC-257; test: Cytotoxicity against human UACC257 cells assessed as cell growth at 10 uM after 48 hrs by sulforhodamine B assay

Measured: Activity

Cc1cc(C)n(C(=O)COc2ccc3c(-c4ccccc4)cc(=O)oc3c2C)n1
inactive: [1] | [2] | [3] | [4] | [5] | [6] | [7] | [8] | [9] | [10] | [11] | [12] | [13] | [14] | [15] | [16] | [17] | [18] | [19] | [20] | [21] | [22] | [23] | [24] | [25] | [26] | [27] | [28] | [29] | [30] | [31] | [32] | [33] | [34] | [35] | [36] | [37] | [38] | [39] | [40] | [41] | [42] | [43] | [44] | [45] | [46] | [47] | [48] | [49] | [50] | [51] | [52] | [53] | [54] | [55] | [56] | [57] | [58]
